Some test systems named below: UACC-257 melanoma; M14 melanoma; NCI-H460 lung; NCI/ADR-RES ovarian; NCI-H522 lung; SK-MEL-5 melanoma; SR leukemia; UACC-62 melanoma; MDA-MB-231 breast; EKVX NSCLC.
Common to all, as to assay: inhibition of tumour cell growth, NCI panel, 48 h

Values joined by “and” are separate entries in the source; they are usually repeats but may differ in a detail not shown here. Identical values can stand only once.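 The compound was tested at five concentrations on cells cultured in 96-well plates, with a 48-hour exposure period. GI50 marks 50% less growth. TGI denotes the concentration required for complete inhibition of growth.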

Turning to `O=C(Nc1cccc(-n2cc(-c3ccncc3)c(-c3cc(O)cc(Cl)c3)n2)c1)c1ccc(N2CCOCC2)c(C(F)(F)F)c1`, the GI50 in the experiment on UACC-257 melanoma was 2.36 µM; with M14 melanoma it was 0.774 µM; in the experiment on NCI-H460 lung, 0.797 µM; in the experiment on NCI/ADR-RES ovarian, 4.59 µM; in the experiment on NCI-H522 lung, 0.934 µM; with SK-MEL-5 melanoma, 2.33 µM. The GI50 in the experiment on SR leukemia was 0.338 µM; in the experiment with UACC-62 melanoma, 1.72 µM; in the experiment on MDA-MB-231 breast, 0.327 µM. Further, the TGI is 8.48 µM with UACC-257 melanoma; 2.74 µM in the experiment with M14 melanoma; 3.48 µM in the experiment on NCI-H460 lung; > 100 µM in the experiment on NCI/ADR-RES ovarian; 12.1 µM with NCI-H522 lung; 8.49 µM in the experiment with SK-MEL-5 melanoma. The TGI with SR leukemia stood at 1.83 µM; in the experiment with UACC-62 melanoma, 9.38 µM; in the experiment on MDA-MB-231 breast, 1.66 µM.
Take `CC1(C)N=C(N)N=C(N)N1c1ccc(CCC(=O)Nc2ccc(S(=O)(=O)F)cc2)cc1`: the GI50 in the experiment on UACC-257 melanoma is 15.5 µM; in the experiment with M14 melanoma, 0.936 µM; with NCI-H460 lung, 0.253 µM; in the experiment with NCI/ADR-RES ovarian, 98.3 µM; with NCI-H522 lung, 1.26 µM; with SK-MEL-5 melanoma it was 0.774 µM. Besides, the GI50 with SR leukemia was 0.209 µM; in the experiment on UACC-62 melanoma, 0.388 µM; in the experiment with MDA-MB-231 breast, 23.1 µM. The TGI with UACC-257 melanoma was > 100 µM; in the experiment on M14 melanoma it was > 100 µM; in the experiment with NCI-H460 lung, > 100 µM; in the experiment on NCI/ADR-RES ovarian it was > 100 µM; in the experiment with NCI-H522 lung, > 100 µM; in the experiment with SK-MEL-5 melanoma it was 57 µM. For the same compound, the TGI with SR leukemia, in the experiment with UACC-62 melanoma and in the experiment on MDA-MB-231 breast was > 100 µM in each case.
With `Nc1ncc(Cc2ccc3c(c2)OCO3)c(N)n1`, the TGI with UACC-257 melanoma, in the experiment on EKVX NSCLC, in the experiment with M14 melanoma, with NCI-H460 lung, in the experiment on NCI/ADR-RES ovarian and with SK-MEL-5 melanoma was > 100 µM throughout. The TGI with SR leukemia, with UACC-62 melanoma and with MDA-MB-231 breast was > 100 µM throughout.
As to `CC(=O)O[C@H]1C(=O)[C@@]2(C)C([C@H](OC(=O)c3ccccc3)[C@]3(O)C[C@H](OC(=O)[C@H](O)[C@@H](NC(=O)c4ccccc4)c4ccccc4)C(C)=C1C3(C)C)[C@]1(OC(C)=O)CO[C@@H]1C[C@@H]2O` (stereo partly drawn), the GI50 in the experiment with UACC-257 melanoma was > 50 µM; in the experiment with NCI-H460 lung, < 0.005 µM; in the experiment on NCI/ADR-RES ovarian, 1.81 µM; with SK-MEL-5 melanoma it was 0.00785 µM; in the experiment with SR leukemia it was < 0.005 µM; in the experiment with UACC-62 melanoma, 0.0207 µM. Also, in the experiment on MDA-MB-231 breast, the GI50 was 0.0343 µM. For the same compound, the TGI in the experiment on UACC-257 melanoma is > 50 µM; with NCI-H460 lung it was > 50 µM; with NCI/ADR-RES ovarian, 41.9 µM; in the experiment on NCI-H522 lung, 0.0146 µM; with SK-MEL-5 melanoma it was > 50 µM; in the experiment with SR leukemia it was > 50 µM. For the same compound, the TGI in the experiment with UACC-62 melanoma and in the experiment with MDA-MB-231 breast was > 50 µM in each case.
Turning to `COCC([C@@H](O)C(O)C(=O)NCC[C@@H](C)c1nc(/C=C/CC2OC3(C[C@H](O)C2C)OC(C(C[C@H](O)C(C)[C@H](O)C(C)/C=C(C)/C(C)=C/C=C/C(C)=C/C#N)OC)[C@@H](OP(=O)(O)O)C3(C)C)co1)N(C)C` (stereo partly drawn), the TGI in the experiment with UACC-257 melanoma was found to be 0.00232 µM; in the experiment on EKVX NSCLC, 0.000326 µM; in the experiment on M14 melanoma, 0.000323 µM; in the experiment with NCI-H460 lung it was 0.000272 µM; in the experiment with NCI/ADR-RES ovarian it was 0.00258 µM; in the experiment on NCI-H522 lung it was 0.000308 µM. The figures for the TGI in the experiment with UACC-62 melanoma and in the experiment with MDA-MB-231 breast were 0.000341 µM and 0.000562 µM, respectively.
For the compound `N#Cc1nc2c(S(=O)(=O)c3ccc(Cl)cc3)c(N)n(Nc3cccc(Cl)c3)c2nc1C#N`, the TGI in the experiment with UACC-257 melanoma is 37.2 µM; with M14 melanoma, 0.304 µM; in the experiment on NCI-H460 lung it was > 100 µM; in the experiment on NCI/ADR-RES ovarian, > 100 µM; with NCI-H522 lung, 0.449 µM; with SK-MEL-5 melanoma, 0.657 µM. Moreover, the figures for the TGI with UACC-62 melanoma and in the experiment with MDA-MB-231 breast were 0.336 µM and 0.0869 µM, respectively. The GI50 in the experiment on EKVX NSCLC was 0.0693 µM and 0.0266 µM; in the experiment with M14 melanoma, 0.0671 µM; in the experiment on NCI-H460 lung, 0.0704 µM; in the experiment on NCI/ADR-RES ovarian, 0.0505 µM; in the experiment with NCI-H522 lung, 0.11 µM; in the experiment on SK-MEL-5 melanoma, 0.115 µM. In addition, the GI50 in the experiment with UACC-62 melanoma was 0.115 µM; in the experiment on MDA-MB-231 breast it was 0.0178 µM.
With `COc1ccc(OC)c(/C=C/c2nc(=S)n(-c3ccc(Cl)cc3)[nH]2)c1`, the GI50 in the experiment on UACC-257 melanoma was > 100 µM; with EKVX NSCLC, 30 µM; in the experiment on M14 melanoma, 4.24 µM; in the experiment with NCI-H460 lung, 4.53 µM; with NCI/ADR-RES ovarian it was 3.63 µM; in the experiment on NCI-H522 lung, 4.07 µM. Also, the GI50 in the experiment on SK-MEL-5 melanoma was 3.58 µM; in the experiment on UACC-62 melanoma it was 3.11 µM; in the experiment on MDA-MB-231 breast, 14.5 µM. Further, the TGI in the experiment with UACC-257 melanoma, in the experiment on EKVX NSCLC, in the experiment with M14 melanoma, in the experiment with NCI-H460 lung, in the experiment with NCI/ADR-RES ovarian and with NCI-H522 lung was > 100 µM in each case. Further, the TGI with SK-MEL-5 melanoma, in the experiment on UACC-62 melanoma and in the experiment with MDA-MB-231 breast was > 100 µM throughout.
Consider `O=C1CC(c2ccccc2)Oc2ccccc21` (stereo not drawn), for which the TGI was > 100 µM with UACC-257 melanoma; > 100 µM in the experiment with EKVX NSCLC; > 100 µM with M14 melanoma; > 100 µM with NCI-H460 lung; > 100 µM with NCI/ADR-RES ovarian; 65.8 µM with SK-MEL-5 melanoma. The results for the TGI in the experiment on SR leukemia, with UACC-62 melanoma and in the experiment with MDA-MB-231 breast were 50.6 µM, > 100 µM and 94 µM, respectively.
On to `COc1ccc(OC)c(NCC(=O)n2nc(/C=C\c3ccc(O)c(OC)c3)cc2/C=C\c2ccc(O)c(OC)c2)c1`, for which the GI50 is 3.28 µM in the experiment on UACC-257 melanoma; 3 µM in the experiment with EKVX NSCLC; 2.02 µM in the experiment on M14 melanoma; 2.59 µM with NCI-H460 lung; 3.5 µM in the experiment with NCI/ADR-RES ovarian; 1.31 µM with NCI-H522 lung. For the same compound, the GI50 with SK-MEL-5 melanoma was 1.66 µM; in the experiment on UACC-62 melanoma, 1.56 µM; in the experiment with MDA-MB-231 breast, 3.02 µM. Also, the TGI in the experiment on UACC-257 melanoma is 14.8 µM; with EKVX NSCLC, 15.6 µM; in the experiment with M14 melanoma, 6.18 µM; in the experiment on NCI-H460 lung it was 9.84 µM; in the experiment with NCI/ADR-RES ovarian, > 100 µM; in the experiment on NCI-H522 lung, 3.28 µM. The TGI was 4.91 µM with SK-MEL-5 melanoma, 4.72 µM in the experiment with UACC-62 melanoma and > 100 µM in the experiment on MDA-MB-231 breast.
For `O=C(Nc1ccc(N=C=S)cc1Cl)c1cc(Br)cc(Br)c1O`, the TGI in the experiment on UACC-257 melanoma is 48.9 µM; in the experiment with M14 melanoma, > 100 µM; in the experiment with NCI-H460 lung, > 100 µM; in the experiment on NCI/ADR-RES ovarian it was 58 µM; with NCI-H522 lung it was > 100 µM; in the experiment with SK-MEL-5 melanoma, 46.5 µM. For the same compound, the figures for the TGI in the experiment on SR leukemia, in the experiment with UACC-62 melanoma and in the experiment with MDA-MB-231 breast were 62 µM, 35.2 µM and 46.2 µM, respectively.
